The results in this text go back to patent US8846933B2, “N-link hydroxamic acid derivatives useful as antibacterial agents” (Pfizer Inc., priority 2009, dated 2014).

In experiment [1] the test system is Escherichia coli EC-1: VOGEL, mouse virulent. The experiment is described as follows: MIC determination (CLSI), strain EC-1. In kind it is cell-based. The following applies: strain EC-1, unit assumed. A digest of the protocol: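 The mouse-virulent VOGEL isolate of E. coli, EC-1, served as test organism. Minimum inhibitory concentration was measured by CLSI dilution methodology (M7-A7; M100-S18 standards).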

For experiment [2], the system named is Pseudomonas aeruginosa UI-18: Wild-type (PA-7). Description: MIC determination (CLSI), strain PA-7. It counts as cell-based. The following applies: strain PA-7, unit assumed. A digest of the protocol: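 MIC determined by broth dilution per CLSI M7-A7 guidelines with M100-S18 interpretive standards. Test organism: wild-type Pseudomonas aeruginosa UI-18, designated PA-7.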

Setting [3] is: generated in the same manner as in Table 4.

Molecules are shown by their SMILES. Bounds are passed on as bounds.

`CC(CCn1ccc(-c2ccc(OCCCCO)cc2Cl)cc1=O)(C(=O)NO)S(C)(=O)=O` (centres unmarked) [Example 239, 4-{4-[2-chloro-4-(4-hydroxybutoxy)phenyl]-2-oxopyridin-1(2H)-yl}-N-hydroxy-2-methyl-2-(methylsulfonyl)butanamide] had an EC-1 (MIC) in experiment [1] of 1 µg/mL. In experiment [2], this compound registered a PA-7 (MIC) of 4 µg/mL.

Compound `CC(CCn1ccc(-c2ccc(F)cc2)cc1=O)(C(=O)NO)S(C)(=O)=O` (centres unmarked) [Example 192, 4-[4-(4-fluorophenyl)-2-oxopyridin-1(2H)-yl]-N-hydroxy-2-methyl-2-(methylsulfonyl)butanamide] registered an EC-1 (MIC) in experiment [1] of 8 µg/mL. The compound also yielded a PA-7 (MIC) in experiment [2] of 2 µg/mL.

Turning to `Cc1cc(-c2ccn(CCC(C)(C(=O)NO)S(C)(=O)=O)c(=O)c2)ccn1` (centres unmarked) [Example 209, N-hydroxy-2-methyl-4-(2′-methyl-2-oxo-4,4′-bipyridin-1(2H)-yl)-2-(methylsulfonyl)butanamide], the EC-1 (MIC) in experiment [1] was 64 µg/mL. Besides, the PA-7 (MIC) in experiment [2] is 32 µg/mL.

In experiment [1], `CC(CCn1ccc(-c2ccc(-c3ccc(S(N)(=O)=O)cc3)cc2)cc1=O)(C(=O)NO)S(C)(=O)=O` (centres unmarked) [Example 278, 4-{4-[4′-(aminosulfonyl)biphenyl-4-yl]-2-oxopyridin-1(2H)-yl}-N-hydroxy-2-methyl-2-(methylsulfonyl)butanamide] came in with an EC-1 (MIC) of 2 µg/mL. Besides, the PA-7 (MIC) in experiment [2] came out at 16 µg/mL.

Consider `CC(CCn1ccc(-c2ccc3[nH]cc(CCO)c3c2)cc1=O)(C(=O)NO)S(C)(=O)=O` (centres unmarked) [Example 263, N-hydroxy-4-{4-[3-(2-hydroxyethyl)-1H-indol-5-yl]-2-oxopyridin-1(2H)-yl}-2-methyl-2-(methylsulfonyl)butanamide], for which the EC-1 (MIC) in experiment [1] is 8 µg/mL. The same compound gave a PA-7 (MIC) in experiment [2] above 64 µg/mL.

`C[C@@](CCn1ccc(-c2ccc(-n3cncn3)cc2)cc1=O)(C(=O)NO)S(C)(=O)=O` [Example 371, (2R)-N-hydroxy-2-methyl-2-(methylsulfonyl)-4-{2-oxo-4-[4-(1H-1,2,4-triazol-1-yl)phenyl]pyridin-1(2H)-yl}butanamide]: the EC-1 (MIC) in experiment [1] amounted to 32 µg/mL. The compound also displayed a PA-7 (MIC) in experiment [2] of 8 µg/mL.

With `Cc1cc(OCCCN2CCOCC2)ccc1-c1ccn(CCC(C)(C(=O)NO)S(C)(=O)=O)c(=O)c1` (centres unmarked) [Example 228, N-hydroxy-2-methyl-4-{4-[2-methyl-4-(3-morpholin-4-ylpropoxy)phenyl]-2-oxopyridin-1(2H)-yl}-2-(methylsulfonyl)butanamide], the EC-1 (MIC) in experiment [1] turned out to be 8 µg/mL. This compound showed a PA-7 (MIC) in experiment [2] of 16 µg/mL.

In experiment [1], `C[C@@](CCn1ccc(-c2ccc(-c3cncs3)cc2)cc1=O)(C(=O)NO)S(C)(=O)=O` [Example 406, (2R)-N-hydroxy-2-methyl-2-(methylsulfonyl)-4-{2-oxo-4-[4-(1,3-thiazol-5-yl)phenyl]pyridin-1(2H)-yl}butanamide] registered an EC-1 (MIC) of 0.25 µg/mL. Further, in experiment [2], the PA-7 (MIC) amounted to 0.5 µg/mL.

For `CC(CCn1ccc(-c2cccc(O)c2)cc1=O)(C(=O)NO)S(C)(=O)=O` (centres unmarked) [Example 210, N-hydroxy-4-[4-(3-hydroxyphenyl)-2-oxopyridin-1(2H)-yl]-2-methyl-2-(methylsulfonyl)butanamide], the EC-1 (MIC) in experiment [1] is above 64 µg/mL. In experiment [2], this compound registered a PA-7 (MIC) above 64 µg/mL.

Take `COc1ccc(-c2ccn(CCC(C)(C(=O)NO)S(C)(=O)=O)c(=O)c2)cc1F` (centres unmarked) [Example 180, 4-[4-(3-fluoro-4-methoxyphenyl)-2-oxopyridin-1(2H)-yl]-N-hydroxy-2-methyl-2-(methylsulfonyl)butanamide]: the EC-1 (MIC) in experiment [1] (setting [3]) worked out at 2 µg/mL. The compound further showed a PA-7 (MIC) in experiment [2] (setting [3]) of 8 µg/mL.

As to `CC(CCn1ccc(-c2ccc(OCCCN3CC(O)C3)cc2)cc1=O)(C(=O)NO)S(C)(=O)=O` (centres unmarked) [Example 84, N-hydroxy-4-[4-{4-[3-(3-hydroxyazetidin-1-yl)propoxy]phenyl}-2-oxopyridin-1(2H)-yl]-2-methyl-2-(methylsulfonyl)butanamide], the EC-1 (MIC) in experiment [1] (setting [3]) is above 64 µg/mL. In experiment [2] (setting [3]), the PA-7 (MIC) was 32 µg/mL.

`CC(CCn1ccc(-c2cnc3ccccc3c2)cc1=O)(C(=O)NO)S(C)(=O)=O` (centres unmarked) [Example 125, N-hydroxy-2-methyl-2-(methylsulfonyl)-4-(2-oxo-4-quinolin-3-ylpyridin-1(2H)-yl)butanamide] returned an EC-1 (MIC) in experiment [1] (setting [3]) of 16 µg/mL. Further, the PA-7 (MIC) in experiment [2] (setting [3]) was determined as 32 µg/mL.

In turn, `Cc1nnn(-c2ccc(-c3ccn(CC[C@](C)(C(=O)NO)S(C)(=O)=O)c(=O)c3)cc2)c1C` [Example 416, (2R)-4-{4-[4-(4,5-dimethyl-1H-1,2,3-triazol-1-yl)phenyl]-2-oxopyridin-1(2H)-yl}-N-hydroxy-2-methyl-2-(methylsulfonyl)butanamide] yielded an EC-1 (MIC) in experiment [1] of 64 µg/mL. Also, the PA-7 (MIC) in experiment [2] amounted to 32 µg/mL.

For the compound `Cc1cc(F)cc(-c2ccn(CCC(C)(C(=O)NO)S(C)(=O)=O)c(=O)c2)c1` (centres unmarked) [Example 112, 4-[4-(3-fluoro-5-methylphenyl)-2-oxopyridin-1(2H)-yl]-N-hydroxy-2-methyl-2-(methylsulfonyl)butanamide], in experiment [1] (setting [3]), the EC-1 (MIC) is 4 µg/mL. Also, the PA-7 (MIC) in experiment [2] (setting [3]) came out at 4 µg/mL.

In experiment [1], `C[C@@](CCn1ccc(-c2ccc(-c3cccnn3)cc2)cc1=O)(C(=O)NO)S(C)(=O)=O` [Example 453, (2R)-N-hydroxy-2-methyl-2-(methylsulfonyl)-4-[2-oxo-4-(4-pyridazin-3-ylphenyl)pyridin-1(2H)-yl]butanamide] returned an EC-1 (MIC) of 4 µg/mL. The same compound came in with a PA-7 (MIC) in experiment [2] of 8 µg/mL.

The compound `Cc1ccc(C#N)c(Oc2ccc(-c3ccn(CC[C@](C)(C(=O)NO)S(C)(=O)=O)c(=O)c3)cc2)n1` [Example 438, (2R)-4-[4-{4-[(3-cyano-6-methylpyridin-2-yl)oxy]phenyl}-2-oxopyridin-1(2H)-yl]-N-hydroxy-2-methyl-2-(methylsulfonyl)butanamide] returned an EC-1 (MIC) in experiment [1] of 4 µg/mL. In experiment [2], the PA-7 (MIC) was 8 µg/mL.

In turn, `C[C@@](CCn1ccc(-c2ccc(OCCCC3CCN(C(=O)CO)CC3)cc2)cc1=O)(C(=O)NO)S(C)(=O)=O` [Example 313, (2R)-4-[4-{4-[3-(1-glycoloylpiperidin-4-yl)propoxy]phenyl}-2-oxopyridin-1(2H)-yl]-N-hydroxy-2-methyl-2-(methylsulfonyl)butanamide] displayed an EC-1 (MIC) in experiment [1] of 0.5 µg/mL. The same compound yielded a PA-7 (MIC) in experiment [2] of 4 µg/mL.

Regarding `CC(CCn1ccc(-c2ccco2)cc1=O)(C(=O)NO)S(C)(=O)=O` (centres unmarked) [Example 175, 4-[4-(2-furyl)-2-oxopyridin-1(2H)-yl]-N-hydroxy-2-methyl-2-(methylsulfonyl)butanamide], in experiment [1] (setting [3]), the EC-1 (MIC) is 64 µg/mL. Further, the PA-7 (MIC) in experiment [2] (setting [3]) was 16 µg/mL.

`CC(CCn1ccc(-c2ccc(OCCCn3cncn3)c(Cl)c2Cl)cc1=O)(C(=O)NO)S(C)(=O)=O` (centres unmarked) [Example 292, 4-[4-{2,3-dichloro-4-[3-(1H-1,2,4-triazol-1-yl)propoxy]phenyl}-2-oxopyridin-1(2H)-yl]-N-hydroxy-2-methyl-2-(methylsulfonyl)butanamide] gave an EC-1 (MIC) in experiment [1] of 8 µg/mL. The compound also registered a PA-7 (MIC) in experiment [2] of 16 µg/mL.

Take `COc1ccc(-c2ccn(CC[C@](C)(C(=O)NO)S(C)(=O)=O)c(=O)c2)cc1Cl` [Example 334, (2R)-4-[4-(3-chloro-4-methoxyphenyl)-2-oxopyridin-1(2H)-yl]-N-hydroxy-2-methyl-2-(methylsulfonyl)butanamide]: in experiment [1], the EC-1 (MIC) came to 8 µg/mL. Also, the PA-7 (MIC) in experiment [2] was found to be 1 µg/mL.

`CC(CCn1ccc(-c2ccc(O)cc2)cc1=O)(C(=O)NO)S(C)(=O)=O` (centres unmarked) [Example 97, N-hydroxy-4-[4-(4-hydroxyphenyl)-2-oxopyridin-1(2H)-yl]-2-methyl-2-(methylsulfonyl)butanamide] displayed an EC-1 (MIC) in experiment [1] (setting [3]) above 64 µg/mL. This compound also yielded a PA-7 (MIC) in experiment [2] (setting [3]) above 64 µg/mL.

In experiment [1] (setting [3]), `CC(=O)c1cccc(-c2ccn(CCC(C)(C(=O)NO)S(C)(=O)=O)c(=O)c2)c1` (centres unmarked) [Example 127, 4-[4-(3-acetylphenyl)-2-oxopyridin-1(2H)-yl]-N-hydroxy-2-methyl-2-(methylsulfonyl)butanamide] gave an EC-1 (MIC) of 16 µg/mL. The compound also registered a PA-7 (MIC) in experiment [2] (setting [3]) of 32 µg/mL.

Consider `C[C@@](CCn1ccc(-c2ccc(Oc3ccnc4ccccc34)cc2)cc1=O)(C(=O)NO)S(C)(=O)=O` [Example 444], for which the EC-1 (MIC) in experiment [1] is 0.125 µg/mL. For the same compound, the PA-7 (MIC) in experiment [2] turned out to be 2 µg/mL.

In experiment [1], `C[C@@](CCn1ccc(-c2ccc(-c3cocn3)cc2)cc1=O)(C(=O)NO)S(C)(=O)=O` [Example 389, (2R)-N-hydroxy-2-methyl-2-(methylsulfonyl)-4-{4-[4-(1,3-oxazol-4-yl)phenyl]-2-oxopyridin-1(2H)-yl}butanamide] displayed an EC-1 (MIC) of 1 µg/mL. In experiment [2], this compound returned a PA-7 (MIC) of 1 µg/mL.

`CC(C)(C#N)Cc1ccc(-c2ccn(CC[C@](C)(C(=O)NO)S(C)(=O)=O)c(=O)c2)cc1` [Example 343, (2R)-4-{4-[4-(2-cyano-2-methylpropyl)phenyl]-2-oxopyridin-1(2H)-yl}-N-hydroxy-2-methyl-2-(methylsulfonyl)butanamide] gave an EC-1 (MIC) in experiment [1] of 8 µg/mL. In addition, the PA-7 (MIC) in experiment [2] came to 2 µg/mL.

In the case of `CC(C)(C)NC(=O)c1cc(-c2ccn(CCC(C)(C(=O)NO)S(C)(=O)=O)c(=O)c2)ccc1F` (centres unmarked) [Example 211, N-tert-butyl-2-fluoro-5-{1-[4-(hydroxyamino)-3-methyl-3-(methylsulfonyl)-4-oxobutyl]-2-oxo-1,2-dihydropyridin-4-yl}benzamide], the EC-1 (MIC) in experiment [1] is 64 µg/mL. In addition, the PA-7 (MIC) in experiment [2] was above 64 µg/mL.

With `C[C@@](CCn1ccc(-c2ccc3c(c2)CCC3=O)cc1=O)(C(=O)NO)S(C)(=O)=O` [Example 339, (2R)-N-hydroxy-2-methyl-2-(methylsulfonyl)-4-[2-oxo-4-(1-oxo-2,3-dihydro-1H-inden-5-yl)pyridin-1(2H)-yl]butanamide], in experiment [1], the EC-1 (MIC) was determined as 4 µg/mL. This compound returned a PA-7 (MIC) in experiment [2] of 4 µg/mL.

For `Cc1nnnn1-c1ccc(-c2ccn(CC[C@](C)(C(=O)NO)S(C)(=O)=O)c(=O)c2)cc1` [Example 378, (2R)-N-hydroxy-2-methyl-2-(methylsulfonyl)-4-{4-[4-(5-methyl-1H-tetrazol-1-yl)phenyl]-2-oxopyridin-1(2H)-yl}butanamide], in experiment [1], the EC-1 (MIC) is 32 µg/mL. In experiment [2], this compound displayed a PA-7 (MIC) of 64 µg/mL.
